Values joined by “and” are separate entries in the source; they are usually repeats but may differ in a detail not shown here. Equal values may be shown once. Inconclusive results and toxic doses are left out.
Tested on: L1210 leukemia ip in BDF1 mice, survival T/C
Assay: NCI In Vivo Anticancer Drug Screen. Data for tumor model L1210 Leukemia (intraperitoneal) in B6D2F1 (BDF1) mice
Conditions: endpoint: mean survival time, higher = longer survival
Procedure, shortened: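 Transplanted-tumor mice were given test agent; controls received vehicle only. Survival readings from the two groups were divided (treated over control).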

[1] = dose: 25.0 mg/kg/injection, schedule: Q04DX003 (ip), vehicle: Klucel (hydroxypropylcellulose) (HPC)
[2] = dose: 50.0 mg/kg/injection, schedule: Q04DX003 (ip), vehicle: Klucel (hydroxypropylcellulose) (HPC)
[3] = dose: 100.0 mg/kg/injection, schedule: Q04DX003 (ip), vehicle: Klucel (hydroxypropylcellulose) (HPC)
[4] = dose: 100.0 mg/kg/injection, schedule: Q01DX009 (ip), vehicle: Klucel (hydroxypropylcellulose) (HPC)
[5] = dose: 200.0 mg/kg/injection, schedule: Q01DX009 (ip), vehicle: Klucel (hydroxypropylcellulose) (HPC)
[6] = dose: 100.0 mg/kg/injection, schedule: Q01DX001 (ip), vehicle: saline

`c1ccc(C2CO2)cc1` (configuration not stated) was tested, and the T/C [1] was 97 % of control, the T/C (dose: 50.0 mg/kg/injection, schedule: Q01DX001 (ip), vehicle: carboxymethylcellulose (CMC)) was 95 % of control and the T/C [2] was 90 % of control. The T/C (dose: 100.0 mg/kg/injection, schedule: Q01DX001 (ip), vehicle: carboxymethylcellulose (CMC)) was 101 % of control, the T/C [3] was 98 % of control and the T/C (dose: 200.0 mg/kg/injection, schedule: Q01DX001 (ip), vehicle: carboxymethylcellulose (CMC)) was 97 % of control. For the same molecule, the T/C (dose: 400.0 mg/kg/injection, schedule: Q01DX001 (ip), vehicle: carboxymethylcellulose (CMC)) was 97 % of control.

In the case of `CCOC(=O)c1c[nH]c2c(ccc3cc(OC)ccc32)c1=O`, the T/C (dose: 50.0 mg/kg/injection, schedule: Q01DX009 (ip), vehicle: Klucel (hydroxypropylcellulose) (HPC)) is reported as 101 % of control, the T/C [4] is reported as 97 % of control and the T/C [5] is reported as 97 % of control.

With `O=c1c2ccccc2c(-c2ccccc2)nn1Cc1ccccc1` the T/C (dose: 100.0 mg/kg/injection, schedule: Q01DX009 (ip), vehicle: saline with Tween-80) was 93 % of control, the T/C (dose: 200.0 mg/kg/injection, schedule: Q01DX009 (ip), vehicle: saline with Tween-80) was 102 % of control and the T/C (dose: 400.0 mg/kg/injection, schedule: Q01DX009 (ip), vehicle: saline with Tween-80) was 104 % of control.

With `c1nc(SSc2ncnc3nc[nH]c23)c2[nH]cnc2n1` the T/C (dose: 0.1 mg/kg/injection, schedule: Q04DX003 (ip), vehicle: saline) was 97 % of control, the T/C (dose: 0.12 mg/kg/injection, schedule: Q04DX003 (ip), vehicle: saline) was 119 % of control and the T/C (dose: 0.2 mg/kg/injection, schedule: Q04DX003 (ip), vehicle: saline) was 119 % of control. The T/C (dose: 0.25 mg/kg/injection, schedule: Q04DX003 (ip), vehicle: saline) was 117 % of control, the T/C (dose: 0.35 mg/kg/injection, schedule: Q01DX009 (ip), vehicle: saline) was 100 % of control and the T/C (dose: 0.5 mg/kg/injection, schedule: Q04DX003 (ip), vehicle: saline) was 120 % of control. For the same molecule, the T/C (dose: 0.8 mg/kg/injection, schedule: Q01DX009 (ip), vehicle: saline) was 152 % of control, the T/C (dose: 0.8 mg/kg/injection, schedule: Q04DX003 (ip), vehicle: saline with Tween-80) was 98 % of control and the T/C (dose: 1.6 mg/kg/injection, schedule: Q04DX003 (ip), vehicle: saline with Tween-80) was 106 % of control. For the same molecule, the T/C (dose: 3.0 mg/kg/injection, schedule: Q04DX003 (ip), vehicle: saline) was 239 % of control, the T/C (dose: 3.08 mg/kg/injection, schedule: Q01DX001 (ip), vehicle: saline with Tween-80) was 121 % of control and the T/C (dose: 3.25 mg/kg/injection, schedule: Q04DX003 (ip), vehicle: saline with Tween-80) was 113 % of control. The T/C (dose: 5.5 mg/kg/injection, schedule: Q04DX003 (ip), vehicle: Klucel (hydroxypropylcellulose) (HPC)) was 121 % of control, the T/C (dose: 6.0 mg/kg/injection, schedule: Q04DX003 (ip), vehicle: saline) was 112 % of control and the T/C (dose: 7.5 mg/kg/injection, schedule: Q04DX003 (ip), vehicle: saline) was 189 % of control. For the same molecule, the T/C (dose: 10.0 mg/kg/injection, schedule: Q01DX001 (ip), vehicle: saline) was 118 % of control, the T/C (dose: 10.0 mg/kg/injection, schedule: Q01DX009 (ip), vehicle: saline) was 169 % of control and the T/C (dose: 12.0 mg/kg/injection, schedule: Q01DX001 (ip), vehicle: saline) was 103 % of control. For the same molecule, the T/C (dose: 12.0 mg/kg/injection, schedule: Q04DX003 (ip), vehicle: saline) was 154 % of control, the T/C (dose: 15.0 mg/kg/injection, schedule: Q01DX009 (ip), vehicle: saline) was 154 % of control and the T/C (dose: 15.0 mg/kg/injection, schedule: Q04DX003 (ip), vehicle: saline) was 159 % of control. The T/C (dose: 25.0 mg/kg/injection, schedule: Q04DX003 (ip), vehicle: saline) was 151 % of control, the T/C (dose: 26.0 mg/kg/injection, schedule: Q04DX003 (ip), vehicle: saline with Tween-80) was 157 % of control and the T/C (dose: 29.7 mg/kg/injection, schedule: Q04DX003 (ip), vehicle: saline) was 106 % of control. For the same molecule, the T/C (dose: 30.0 mg/kg/injection, schedule: Q04DX003 (ip), vehicle: saline) was 90 % of control, the T/C (dose: 33.0 mg/kg/injection, schedule: Q04DX003 (ip), vehicle: Klucel (hydroxypropylcellulose) (HPC)) was 120 % of control and the T/C (dose: 35.0 mg/kg/injection, schedule: Q01DX009 (ip), vehicle: saline with Tween-80) was 163 % of control. The T/C (dose: 35.0 mg/kg/injection, schedule: Q04DX003 (ip), vehicle: Klucel (hydroxypropylcellulose) (HPC)) was 198 % of control, the T/C (dose: 39.0 mg/kg/injection, schedule: Q04DX003 (ip), vehicle: saline with Tween-80) was 172 % of control and the T/C (dose: 44.0 mg/kg/injection, schedule: Q01DX009 (ip), vehicle: saline) was 100 % of control. For the same molecule, the T/C (dose: 44.0 mg/kg/injection, schedule: Q04DX003 (ip), vehicle: saline) was 202 % of control, the T/C (dose: 50.0 mg/kg/injection, schedule: Q01DX009 (ip), vehicle: saline) was 106 % of control and the T/C [2] was 152 % of control and 209 % of control. For the same molecule, the T/C (dose: 50.0 mg/kg/injection, schedule: Q04DX003 (ip), vehicle: saline) was 123 % of control and 203 % of control, the T/C (dose: 52.0 mg/kg/injection, schedule: Q04DX003 (ip), vehicle: saline with Tween-80) was 168 % of control and the T/C (dose: 63.0 mg/kg/injection, schedule: Q01DX Z (ip), vehicle: saline) was 95 % of control. For the same molecule, the T/C (dose: 66.0 mg/kg/injection, schedule: Q01DX001 (ip), vehicle: saline) was 157 % of control, the T/C (dose: 66.0 mg/kg/injection, schedule: Q04DX003 (ip), vehicle: saline) was 216 % of control and the T/C (dose: 67.5 mg/kg/injection, schedule: Q04DX003 (ip), vehicle: saline) was 106 % of control. For the same molecule, the T/C (dose: 70.0 mg/kg/injection, schedule: Q01DX009 (ip), vehicle: saline with Tween-80) was 93 % of control, the T/C (dose: 70.0 mg/kg/injection, schedule: Q04DX003 (ip), vehicle: saline) was 178 % of control and the T/C [6] was 155 % of control. For the same molecule, the T/C [3] was 124 % of control, the T/C (dose: 140.0 mg/kg/injection, schedule: Q04DX003 (ip), vehicle: saline) was 103 % of control and the T/C (dose: 200.0 mg/kg/injection, schedule: Q04DX003 (ip), vehicle: saline) was 89 % of control.

`COc1ccc(NC(=O)Oc2ccc(F)cc2)c(OC)c1` was tested, and the T/C [4] was 89 % of control, the T/C [5] was 101 % of control and the T/C (dose: 400.0 mg/kg/injection, schedule: Q01DX009 (ip), vehicle: Klucel (hydroxypropylcellulose) (HPC)) was 94 % of control.

`COC(=O)CC(c1ccc(OC)cc1)C(CC(=O)OC)c1ccc(OC)cc1` (configuration not stated) was tested, and the T/C [3] was 98 % of control, the T/C (dose: 200.0 mg/kg/injection, schedule: Q04DX003 (ip), vehicle: Klucel (hydroxypropylcellulose) (HPC)) was 93 % of control and the T/C (dose: 400.0 mg/kg/injection, schedule: Q04DX003 (ip), vehicle: Klucel (hydroxypropylcellulose) (HPC)) was 104 % of control.

In the case of `Cc1ccc(C(=O)Nc2ccc(OCCCc3c(N)nc(N)nc3N)cc2)cc1S(=O)(=O)F`, the T/C [1] is reported as 103 % of control, the T/C [2] is reported as 97 % of control and the T/C [3] is reported as 103 % of control.

In the case of `Cc1ccc2c(c1)c(C)c(C)c(=O)n2C`, the T/C [6] is reported as 98 % of control, the T/C (dose: 200.0 mg/kg/injection, schedule: Q01DX001 (ip), vehicle: saline) is reported as 93 % of control and the T/C (dose: 400.0 mg/kg/injection, schedule: Q01DX001 (ip), vehicle: saline) is reported as 96 % of control.

With `C=CCCCCCCCCC(=O)NC(C)C(C)(C)C` (configuration not stated) the T/C (dose: 100.0 mg/kg/injection, schedule: Q04DX003 (ip), vehicle: saline with Tween-80) was 87 % of control and the T/C (dose: 200.0 mg/kg/injection, schedule: Q04DX003 (ip), vehicle: saline with Tween-80) was 98 % of control.
